US10815237B2, “Antimicrobials and methods of making and using same” (BIOVERSYS AG, priority 2016, dated 2020)
≈ marks a conversion by molar mass, not a printed value. Like-named read-outs stand apart in the source and are kept apart here.

How the values were obtained:
[1] = test system: Eschericia coli (E. coli) strain ATCC25922; assay: standard microdilution MIC, E. coli; assay type: cell-based, Escherichia coli; details: Escherichia coli
Experimental: (§1) The in vitro activity of the compounds of the present disclosure can be determined. Antimicrobial testing is typically performed to determine the minimum inhibitory concentration (MIC). Minimum inhibitory concentrations (MICs) are determined by the microdilution method in a final volume of 100 μl according to protocols outlined by The Clinical and Laboratory Standards Institute (CLSI). Performance standards for reference strains are assessed within the same experimental design to maintain quality control. See, for example, Clinical Laboratory Standards Institute: Methods for dilution antimicrobial susceptibility tests for bacteria that grow aerobically M7-A8. Approved Standard-Eighth Edition. Wayne, Pa.: CLSI; December 2008; and Clinical Laboratory Standards Institute: Performance Standards for Antimicrobial Susceptibility Testing M100-S20; Approved Standard-Twentieth Edition. Wayne, Pa.: CLSI; June 2010.
(§2) The compounds of the present disclosure were tested for antimicrobial activity. The Compounds 1-23 were run against Eschericia coli (E. coli) strain ATCC25922 and against Staphylococcus aureus (S. aureus) 11540 strain using a standard microdilution assay to determine minimum inhibitory concentrations (MICs). […] It will be recognized by one skilled in the art that the compounds can be assessed against other bacterial organisms and that the presentation of data for activity against Eschericia coli and Staphylococcus aureus are illustrative and in no way is intended to limit the scope of the present disclosure. The compounds of the present disclosure can be assayed against a range of other microorganisms depending upon the performance activity desired to be gathered. Furthermore, the “+” and “−” representation and the selection of a cutoff value of 16 micrograms/mL is also illustrative and in no way is intended to limit the scope of the present disclosure.

[2] = test system: E. coli DH10B mcr-1 transformant; assay: CLSI broth microdilution MIC, E. coli DH10B mcr-1 transformant; assay type: cell-based
Experimental: (§3) Four compounds, including Compound No. 8 of the present application (RX-04D) were tested against (i) multiresistant Enterobacteriaceae and Acinetobacter with carbapenemases; (ii) Enterobacteriaceae with MCR-1; and (iii) P. aeruginosa with altered efflux (see Tables 4 and 5). In this case, MCR-1 is relevant because its activity reduces the negative charge of lipopolysaccharides, potentially affecting binding of poly-basic molecules such as the compounds tested herein, as well as polymyxins.
(§4) MICs of the four tested compounds and comparators (amikacin, cefepime, colistin, meropenem and tigecyline) were determined by CLSI broth microdilution using pre-prepared plates (Trek Diagnostic Systems) (CLSI Approved Standard M7-A10). Carbapenemase and mcr-1 genes were detected by PCR or sequencing. Efflux levels in P. aeruginosa isolates were inferred by interpretive reading of antibiogram data.

[3] = test system: Enterobacteriaceae (n=68); assay: CLSI broth microdilution MIC, Enterobacteriaceae panel; assay type: cell-based; details: for peak of unimodal MIC distribution: 68 Enterobacteriaceae
Experimental: as §3, §4

[4] = test system: A. baumannii isolates (n=10); assay: CLSI broth microdilution MIC, A. baumannii; assay type: cell-based; details: for relative activity among analogues: 10 A. baumannii; for MIC: Acinetobacter baumannii, A. baumannii
Experimental: as §3, §4

E. coli DH10B recipient = assay: CLSI broth microdilution MIC, E. coli DH10B recipient; assay type: cell-based
Experimental: as §3, §4

[5] = test system: Staphylococcus aureus (S. aureus) 11540 strain; assay: standard microdilution MIC, S. aureus; assay type: cell-based; details: Staphylococcus aureus
Experimental: as §1, §2

[6] = test system: Chinese hamster ovary (CHO) cells; assay: cytotoxicity against CHO cell line (Cell Titer Blue); assay type: cell-based; details: Cricetulus griseus, 24 h, CHO-K1 cells, 24 hours incubation, percent cell kill
Experimental: The compounds of the present disclosure were tested for cytotoxicity against Chinese hamster ovary (CHO) cells.
The assay was performed by seeding CHO—K1 in F12K medium containing 13.33% Fetal Bovine Serum […]. 37.5 μl of cell suspension at a concentration of 9,500 cells/well was plated into each column of a 384-well black clear bottom assay plate with the exception of a negative (no cell) control column, and allowed to adhere for 2 hours. The culture media was then removed from the 175 cm^2 flask(s) and the cell monolayer washed with 10 mL of Phosphate Buffered Saline PBS. 3 mL of Cellstripper™ was then added and the flask was incubated for approximately 5 min at 37° C. The cells were dissociated by agitation and 7 mL of F 12K medium containing 10% FBS was added to the flask. A homogeneous cell suspension was obtained by trituration of the flask. The cells were counted with a hemocytometer by diluting an aliquot of the cell suspension in PBS with 0.4% trypan blue. Typically, a ratio of 100 μl cell suspension to 1800 μl PBS to 100 μl trypan blue was used.
The volume of cell suspension containing the number of cells needed to seed the plate(s) (15.2 mL containing 3.8×10^6 cells) was calculated and transferred to a 50 mL centrifuge tube with the appropriate volume of media. 37.5 μl of cells were added to each well of the 384 well plate except for the negative (no cell) control column. A cytotoxicity 100-fold dilution plate was then prepared by manually pipetting 18 μl of 100% DMSO into two columns of an empty low volume dilution plate. 2 μl of a 50 mM solution of compounds 1-23 from the translation plate were manually pipetted into the corresponding columns of the 100-fold dilution plate. 10 μl of 100% DMSO was manually pipetted into all remaining columns of the 100-fold plate.
A 4-fold cytotoxicity plate was prepared beforehand by manually pipetting 48 μl of F12K media (without DMSO and without FBS) into each well of a matrix 384 well plate. The test samples in the 100-fold dilution plate were mixed and diluted. Ten 2-fold dilutions were performed for each compound in duplicate. The 384 cannula array then transferred 2 μl to the 48 μl of media in the cytotoxicity 4-fold dilution plate. The array was then mixed and 12.5 μl of samples from the cytotoxicity 4-fold dilution plate were transferred to the 37.5 μl of cells and media. The final top concentration of samples at this point in the procedure was 50 μM with 10 subsequent 1:2 dilutions down to […]. The final DMSO concentration were 1% and the final concentration of FBS was 10%.
Cycloheximide was run as a control. Specifically, Cycloheximide was diluted to 0.1 mM from 100 mM stock […] and was added to the cytotoxicity 100-fold plate. Upon addition to the cell plate, a range of 1 μM to 1 nM of cycloheximide was run.
A column separate from the one (referred to above) that served as the negative control was used for cell control wells to which only media was added.
The plates were then incubated for 24 hours at 37° C. and 5% CO2. […] The two columns used earlier to prepare the 100-fold dilution plate by pipetting 18 μl of 100% DMSO contained the samples tested at 200 μM. After the 24 hour incubation period, the 4 μl of Cell Titer blue was added to each well using a Multichannel Matrix pipettor. The plates were returned to the incubator and incubated for an additional 5 hours. Fluorescence (530 nm excitation wavelength/590 nm emission wavelength) was measured on a Wallac Victor microplate reader.
Cell viability was assessed fluorometrically after a 5 hour incubation with resazurin (Cell Titer Blue™), which is reduced by living cells to the fluorescent resorufin.
The average fluorescence for the negative control was determined to obtain the average blank fluorescence. The average blank fluorescence was subtracted from the fluorescence values obtained for all the test agents. The resulting values are the corrected fluorescence. […]

P. aeruginosa (n=20) = assay: CLSI broth microdilution MIC, P. aeruginosa; assay type: cell-based; details: for share of MICs ≥16 mg/L: P. aeruginosa isolates, stated jointly for analogues C and D; for MIC: Pseudomonas aeruginosa
Experimental: as §3, §4

CPE (n=36) = assay: CLSI broth microdilution MIC, carbapenemase producers (CPE); assay type: cell-based, Enterobacteriaceae; details: 35/36 (97%) for RX-04A
Experimental: as §3, §4

[7] = test system: Enterobacteriaceae with MCR-1 (MCR-1 isolates, n=14); assay: CLSI broth microdilution MIC, MCR-1 isolates; assay type: cell-based; details: all MCR-1 isolates (n=14)
Experimental: as §3, §4

[8] = Escherichia coli, DH10BRECIPIENT, read-out: MIC

## C[C@H](N)CCCc1cc(Cl)c(F)c(-c2cc3cn(-c4ccc([C@@H]5CCC[C@@H](CCNC(=N)CN)N5)cc4)c(=O)nc3[nH]2)c1 [Compound 8]
[1]
  MIC: ≤ 16 µg/mL
[2]; Escherichia coli
  MIC: 1 µg/mL (≈ 1.65 µM)
[3]
  peak of unimodal MIC distribution: 2 µg/mL
[4]
  relative activity among analogues: least active analogue
E. coli DH10B recipient; [8]
  MIC: 1 µg/mL (≈ 1.65 µM)
[5]
  MIC: ≤ 16 µg/mL
[6]
  IC50: 95.2 µM
P. aeruginosa (n=20)
  share of MICs ≥16 mg/L: 48%

## C=C[C@H](N)CCCc1cc(Cl)c(F)c(-c2cc3cn(-c4ccc([C@@H]5CCC[C@@H](CCNC(=N)CN)N5CCCF)cc4)c(=O)nc3[nH]2)c1 [Compound 64]
[1]
  MIC: ≤ 16 µg/mL
[5]
  MIC: ≤ 16 µg/mL
[6]
  IC50: > 100 µM

## C=C[C@H](N)CCCc1cc(Cl)c(F)c(-c2cc3cn(-c4cc(F)c([C@@H]5CCC[C@@H](CCNC(=N)CN)N5CCCF)c(SC)c4)c(=O)nc3[nH]2)c1 [Compound 65]
[1]
  MIC: ≤ 16 µg/mL
[5]
  MIC: ≤ 16 µg/mL
[6]
  IC50: 5.2 µM

## C=C[C@H](N)CCCc1cc(Cl)c(F)c(-c2cc3cn(-c4ccc([C@@H]5CCC[C@@H](CCNC(=N)CN)N5CCCF)c(F)c4)c(=O)nc3[nH]2)c1 [Compound 66]
[1]
  MIC: ≤ 16 µg/mL
[5]
  MIC: ≤ 16 µg/mL
[6]
  IC50: 37.3 µM

## CNCC(=N)NCC[C@@H]1CCC[C@@H](c2ccc(-n3cc4cc(-c5cc(CCC[C@H](C)N)cc(Cl)c5F)[nH]c4nc3=O)cc2)N1 [Compound 67]
[1]
  MIC: ≤ 16 µg/mL
[5]
  MIC: ≤ 16 µg/mL
[6]
  IC50: > 100 µM

## C[C@H](N)CCCc1cc(Cl)c(F)c(-c2cc3cn(-c4ccc([C@@H]5CCC[C@@H](CNC(=N)CN)N5)cc4)c(=O)nc3[nH]2)c1 [Compound 68]
[1]
  MIC: ≤ 16 µg/mL
[5]
  MIC: ≤ 16 µg/mL
[6]
  IC50: 85.3 µM

## Cc1c2cc(-c3cc(CCC[C@H](C)N)cc(Cl)c3F)[nH]c2nc(=O)n1-c1ccc([C@@H]2CCC[C@@H](CCNC(=N)CN)N2)cc1 [Compound 69]
[1]
  MIC: ≤ 16 µg/mL
[5]
  MIC: ≤ 16 µg/mL
[6]
  IC50: > 100 µM

## C[C@H](N)CCCc1cc(OC(F)(F)F)c(F)c(-c2cc3cn(-c4ccc([C@@H]5CCC[C@@H](CCNC(=N)N)N5)cc4)c(=O)nc3[nH]2)c1 [RX-04A]
CPE (n=36)
  MIC relative to MIC for E. coli ATCC 25922: ≤ 4 fold
[2]; Escherichia coli
  MIC: 0.25 µg/mL (≈ 0.389 µM)
[3]; 67/68 (>98%) of Enterobacteriaceae, read-out: MICs
  MIC: 0.25 to 2 µg/mL (≈ 0.389 to 3.11 µM)
[3]
  peak of unimodal MIC distribution: 1 µg/mL
[3]; Enterobacteriaceae, summary, read-out: MICs mostly
  MIC: 1 to 2 µg/mL (≈ 1.56 to 3.11 µM)
[4]
  relative activity among analogues: lowest MICs
[4]; 7/10 values, read-out: MICs
  MIC: 1 to 2 µg/mL (≈ 1.56 to 3.11 µM)
[4]; summary, read-out: MICs mostly
  MIC: 1 to 2 µg/mL (≈ 1.56 to 3.11 µM)
E. coli DH10B recipient; [8]
  MIC: 0.25 µg/mL (≈ 0.389 µM)
[7]
  MIC relative to MIC for E. coli ATCC 25922: ≤ 2 fold
P. aeruginosa (n=20); P. aeruginosa isolates with elevated efflux
  change of MIC with elevated efflux: not raised
P. aeruginosa (n=20); 19/20 (95%) P. aeruginosa isolates, read-out: MICs
  MIC: 1 to 4 µg/mL (≈ 1.56 to 6.22 µM)
P. aeruginosa (n=20); P. aeruginosa, summary, read-out: MICs mostly
  MIC: 1 to 4 µg/mL (≈ 1.56 to 6.22 µM)

## CC(=N)NCC[C@@H]1CCC[C@@H](c2ccc(-n3cc4cc(-c5cc(CCC[C@@H](N)CO)cc(Cl)c5F)[nH]c4nc3=O)cc2F)N1 [RX-04B]
[2]; Escherichia coli
  MIC: 0.5 µg/mL (≈ 0.799 µM)
[3]
  peak of unimodal MIC distribution: 1 µg/mL
E. coli DH10B recipient; [8]
  MIC: 0.5 µg/mL (≈ 0.799 µM)

## CSc1cc(-n2cc3cc(-c4cc(CCC[C@@H](N)C5CC5)cc(Cl)c4F)[nH]c3nc2=O)ccc1[C@@H]1CCC[C@@H](CCNC(C)=N)N1 [RX-04C]
[2]; Escherichia coli
  MIC: 0.5 µg/mL (≈ 0.753 µM)
[3]
  peak of unimodal MIC distribution: 2 µg/mL
E. coli DH10B recipient; [8]
  MIC: 0.5 µg/mL (≈ 0.753 µM)
P. aeruginosa (n=20)
  share of MICs ≥16 mg/L: 48%

## colistin [reference compound]
[2]; E. coli DH10B MCR-1 Transformant
  MIC: 4 µg/mL
E. coli DH10B recipient
  MIC: 0.25 µg/mL
